Test results as given in paper PMC10312039 (Journal of Enzyme Inhibition and Medicinal Chemistry, 2023).

Key:
[1] = tested on: L. donovani promastigotes; test: In vitro potency; assay type: cell-based; details: Leishmania donovani, 72 h, read-out: IC50 against L. donovani promastigotes
[2] = In vitro preliminary safety assessment: cytotoxicity on THP-1 cells; assay type: cell-based; details: human, PMA-treated THP-1 monocytic cells

Row | SMILES | IC50 [1] [µM] | CC50 at 72 h [2] [µM]
1 | CCCCCCCC/C=C\CCCCCCCCCCCCOP(=O)([O-])OCC[N+](C)(C)C [Erufosine] | 9.8 | 19.4
2 | CCCCCCCCCCCCCCCCOP(=O)([O-])OCC[N+](C)(C)C [Miltefosine] | 3.5 | –
